Source: US20110070232A1, “Combination Therapy with an Antitumor Alkaloid” (Pharma Mar, S.A., priority 2008, published 2011)
Where two headings read alike, the source gives them in different places.

Columns and labels:
[1] = test system: AGS human gastric carcinoma cell line; assay: IC50 determination, MTS assay, 72 h (Example 1); type: cell-based; conditions: 72 hours of drug exposure
Protocol: (§1) The human gastric carcinoma cell lines selected for this assay were the following: Hs746T, HGC-27, and AGS cell lines. Hs746T and AGS cell lines were grown in Dulbecco's modified Eagle's medium (DMEM) supplemented with 10% Fetal Bovine Serum (FBS), 1.5 g/L sodium bicarbonate, 4.5 g/L glucose and 4 mM L-glutamine. HGC-27 cell line was grown in Iscove's modified Dulbecco's medium (IMDM) supplemented with 20% FBS and 2 mM L-glutamine.
(§2) The day before plating, the cells were fed with fresh, complete growth media. On the harvest (plating) day, cells were counted by Trypan Blue exclusion staining method.
(§3) Cells were harvested and seeded in 96 well microtiter plates at 10,000 cells density in 150 μL of media and incubated for 24 hours to allow the cells to attach before drug addition. To collect reference data, the MTS assay was done on untreated cells at time 0 (after incubation of cells for 24 hours).
(§4) The cytotoxic effect was measured by the MTS Assay (Tetrazolium), which is a colorimetric method for determining the number of viable cells. After the incubation period (24 hours for the Day 0 plate and 72 hours for the Test and Control plates), 25 μL of MTS+PMS solution was added to each microtiter well and incubated for 4 hours at 37° C. Plates were then removed from incubator and placed on plate shaker for 5 minutes (covered with aluminum foil for protection from light). Optical densities were read at 490 nm on spectrophotometer plate reader.
(§5) IC50 values were calculated from an average of two to four assays for each of the test agents.

[2] = test system: HGC-27 human gastric carcinoma cell line; assay: IC50 determination, MTS assay, 72 h (Example 1); type: cell-based; conditions: 72 hours of drug exposure
Protocol: as §1, §2, §3, §4, §5

[3] = test system: Hs746T human gastric carcinoma cell line; assay: IC50 determination, MTS assay, 72 h (Example 1); type: cell-based; conditions: 72 hours of drug exposure
Protocol: as §1, §2, §3, §4, §5

Hs746T tumors = type: in vivo, mice; conditions: for % T/C on day 14 / % T/C on day 19 / % T/C on day 22 / % T/C on day 26 / % T/C on day 29 / % T/C on day 32 / % T/C on day 39: PM00104 0.90 IV, DPI 14, 21, 28
Protocol: Female athymic nude mice (Harlan Sprague Dawley, Madison, Wis.) were utilized for all experiments. Animals were housed in ventilated rack caging with food and water ad libitum. The mice were acclimated for at least 5 days prior to tumor implantation with a tumor cell suspension.
The tumor model used in these studies was Hs746T cell line, which was obtained from the ATCC (Manassas, Va.).
Treatments were initiated on DPI 14.
(§6) Tumor size measurements were recorded twice weekly from the treatment initiation until the termination of the study.
(§7) Mean, standard deviation and standard error of the mean were determined for tumor volume for all animal groups at all assessments. Student's t test was performed on tumor volumes at each measurement day, including at the end of the study, to determine whether there were any statistically significant differences between combination treatment groups and single monotherapy treatment groups.

MRI-H-254 tumors = type: in vivo, mice
Protocol: Female athymic nude mice (Harlan Sprague Dawley, Madison, Wis.) were utilized for all experiments. Animals were housed in ventilated rack caging with food and water ad libitum. The mice were acclimated for at least 5 days prior to tumor implantation with tumor fragments.
Treatments were initiated on DPI 20.
as §6, §7

[4] = test system: HT-29 (colon cancer) cell line; assay: IC50 determination, MIT (tetrazolium) assay, 72 h (Example 18); type: cell-based, human; conditions: HT-29, 72 hours of drug exposure
Protocol: (§8) Before plating, cell cultures were trypsinized and cell number estimated using an automated flow cytometer.
(§9) Cells were harvested and seeded in 96 well microtiter plates at the appropriate cell density (5,000-10,000 cells) in 150 μL of media and incubated for 24 hours to allow the cells to attach before drug addition.
(§10) After the incubation period (72 hours), 50 μL of MIT solution was added to each microtiter well and incubated for further 8 hours at 37° C. The culture medium was then removed and 50 μl, of DMSO were added to dissolve the MIT crystals. Optical densities were read at 540 nm on spectrophotometer microplate reader.
as §5

[5] = test system: LoVo (colon cancer) cell line; assay: as above; type: cell-based, human; conditions: 72 hours of drug exposure
Protocol: as §8, §9, §10, §5

[6] = test system: HCT-116 (colon cancer) cell line; assay: as above; type: cell-based, human; conditions: HCT-116, 72 hours of drug exposure
Protocol: HCT-116 cells were grown in McCoy's supplemented with 10% Fetal Bovine Serum (FBS), 1% penicillin/streptomycin and 2 mM L-glutamine.
as §8, §9, §10, §5

[7] = docetaxel 8 IP, oxaliplatin 4 IP mg/kg/day (G4, G6, G8, G10)
[8] = docetaxel 16 IP, oxaliplatin 8 IP mg/kg/day (G2, G3, G5, G7, G9)
[9] = PM00104 0.90 IV, docetaxel 8 IP, oxaliplatin 4 IP mg/kg/day (G4, G6, G8, G10), DPI 20, 27, 34
[10] = PM00104 0.90 IV, docetaxel 16 IP, oxaliplatin 8 IP mg/kg/day (G2, G3, G5, G7, G9), DPI 20, 27, 34

Question: With `O=C1[O][Pt]2([NH][C@@H]3CCCC[C@H]3[NH]2)[O]C1=O` [Oxaliplatin, oxaliplatin] as the compound, how does the IC50 [1] read?
Answer: 0.289 µg/mL

Question: What about the IC50 [2] of the same compound?
Answer: 0.192 µg/mL

Question: And the IC50 [3]?
Answer: 8.14 µg/mL

Question: And the “% T/C on day 14” value (Hs746T tumors; [7])?
Answer: 99.9%

Question: What about the “% T/C on day 19” value (Hs746T tumors; [7]) of the same compound?
Answer: 79.9%

Question: And the “% T/C on day 22” value (Hs746T tumors; [7])?
Answer: 83.8%

Question: What about the “% T/C on day 26” value (Hs746T tumors; [7]) of the same compound?
Answer: 78.6%

Question: And the “% T/C on day 29” value (Hs746T tumors; [7])?
Answer: 84.2%

Question: And the “% T/C on day 32” value (Hs746T tumors; [7])?
Answer: 87.5%

Question: What about the “% T/C on day 39” value (Hs746T tumors; [7]) of the same compound?
Answer: 108.4%

Question: What about the “% T/C on day 14” value (Hs746T tumors; [8]) of the same compound?
Answer: 99.6%

Question: What about the “% T/C on day 19” value (Hs746T tumors; [8]) of the same compound?
Answer: 83.5%

Question: What about the “% T/C on day 22” value (Hs746T tumors; [8]) of the same compound?
Answer: 84.9%

Question: And the “% T/C on day 26” value (Hs746T tumors; [8])?
Answer: 89.1%

Question: And the “% T/C on day 29” value (Hs746T tumors; [8])?
Answer: 84.5%

Question: What about the “% T/C on day 32” value (Hs746T tumors; [8]) of the same compound?
Answer: 91.2%

Question: What about the “% T/C on day 39” value (Hs746T tumors; [8]) of the same compound?
Answer: 102.9%

Question: And the “% Inhibition” value (Hs746T tumors; day 14, PM00104 0.9 and oxaliplatin 4 mg/kg/day)?
Answer: 0.1%

Question: And the “% Inhibition” value (Hs746T tumors; day 14, PM00104 0.9 and oxaliplatin 8 mg/kg/day)?
Answer: 0.4%

Question: What about the “% Inhibition” value (Hs746T tumors; day 19, PM00104 0.9 and oxaliplatin 4 mg/kg/day) of the same compound?
Answer: 20.1%

Question: And the “% Inhibition” value (Hs746T tumors; day 19, PM00104 0.9 and oxaliplatin 8 mg/kg/day)?
Answer: 16.5%

Question: What about the “% Inhibition” value (Hs746T tumors; day 22, PM00104 0.9 and oxaliplatin 4 mg/kg/day) of the same compound?
Answer: 16.2%

Question: What about the “% Inhibition” value (Hs746T tumors; day 22, PM00104 0.9 and oxaliplatin 8 mg/kg/day) of the same compound?
Answer: 15.1%

Question: What about the “% Inhibition” value (Hs746T tumors; day 26, PM00104 0.9 and oxaliplatin 4 mg/kg/day) of the same compound?
Answer: 21.4%

Question: What about the “% Inhibition” value (Hs746T tumors; day 26, PM00104 0.9 and oxaliplatin 8 mg/kg/day) of the same compound?
Answer: 10.9%

Question: And the “% Inhibition” value (Hs746T tumors; day 29, PM00104 0.9 and oxaliplatin 4 mg/kg/day)?
Answer: 15.8%

Question: What about the “% Inhibition” value (Hs746T tumors; day 29, PM00104 0.9 and oxaliplatin 8 mg/kg/day) of the same compound?
Answer: 15.5%

Question: What about the “% Inhibition” value (Hs746T tumors; day 32, PM00104 0.9 and oxaliplatin 4 mg/kg/day) of the same compound?
Answer: 12.5%

Question: What about the “% Inhibition” value (Hs746T tumors; day 32, PM00104 0.9 and oxaliplatin 8 mg/kg/day) of the same compound?
Answer: 8.8%

Question: And the “% Inhibition” value (Hs746T tumors; day 39, PM00104 0.9 and oxaliplatin 4 mg/kg/day)?
Answer: −8.4%

Question: And the “% Inhibition” value (Hs746T tumors; day 39, PM00104 0.9 and oxaliplatin 8 mg/kg/day)?
Answer: −2.9%

Question: And the “% T/C on day 20” value (MRI-H-254 tumors; [9])?
Answer: 94.5%

Question: What about the “% T/C on day 23” value (MRI-H-254 tumors; [9]) of the same compound?
Answer: 118.5%

Question: What about the “% T/C on day 27” value (MRI-H-254 tumors; [9]) of the same compound?
Answer: 113.6%

Question: What about the “% T/C on day 33” value (MRI-H-254 tumors; [9]) of the same compound?
Answer: 107.6%

Question: What about the “% T/C on day 36” value (MRI-H-254 tumors; [9]) of the same compound?
Answer: 115.1%

Question: What about the “% T/C on day 40” value (MRI-H-254 tumors; [9]) of the same compound?
Answer: 115.0%

Question: And the “% T/C on day 48” value (MRI-H-254 tumors; [9])?
Answer: 92.4%

Question: And the “% T/C on day 20” value (MRI-H-254 tumors; [10])?
Answer: 95.1%

Question: And the “% T/C on day 23” value (MRI-H-254 tumors; [10])?
Answer: 100.9%

Question: What about the “% T/C on day 27” value (MRI-H-254 tumors; [10]) of the same compound?
Answer: 77.2%

Question: And the “% T/C on day 30” value (MRI-H-254 tumors; [10])?
Answer: 81.7%

Question: What about the “% T/C on day 33” value (MRI-H-254 tumors; [10]) of the same compound?
Answer: 75.0%

Question: What about the “% T/C on day 36” value (MRI-H-254 tumors; [10]) of the same compound?
Answer: 71.1%

Question: And the “% T/C on day 40” value (MRI-H-254 tumors; [10])?
Answer: 67.5%

Question: What about the “% T/C on day 48” value (MRI-H-254 tumors; [10]) of the same compound?
Answer: 55.9%

Question: What about the “% Inhibition” value (MRI-H-254 tumors; day 20, PM00104 0.9 and oxaliplatin 4 mg/kg/day) of the same compound?
Answer: 5.5%

Question: And the “% Inhibition” value (MRI-H-254 tumors; day 20, PM00104 0.9 and oxaliplatin 8 mg/kg/day)?
Answer: 4.9%

Question: And the “% Inhibition” value (MRI-H-254 tumors; day 23, PM00104 0.9 and oxaliplatin 4 mg/kg/day)?
Answer: −18.5%

Question: What about the “% Inhibition” value (MRI-H-254 tumors; day 23, PM00104 0.9 and oxaliplatin 8 mg/kg/day) of the same compound?
Answer: −0.9%

Question: What about the “% Inhibition” value (MRI-H-254 tumors; day 27, PM00104 0.9 and oxaliplatin 4 mg/kg/day) of the same compound?
Answer: −13.6%

Question: And the “% Inhibition” value (MRI-H-254 tumors; day 27, PM00104 0.9 and oxaliplatin 8 mg/kg/day)?
Answer: 22.8%

Question: What about the “% Inhibition” value (MRI-H-254 tumors; day 30, PM00104 0.9 and oxaliplatin 4 mg/kg/day) of the same compound?
Answer: −17.1%

Question: What about the “% Inhibition” value (MRI-H-254 tumors; day 30, PM00104 0.9 and oxaliplatin 8 mg/kg/day) of the same compound?
Answer: 18.3%

Question: What about the “% Inhibition” value (MRI-H-254 tumors; day 33, PM00104 0.9 and oxaliplatin 4 mg/kg/day) of the same compound?
Answer: −7.6%

Question: And the “% Inhibition” value (MRI-H-254 tumors; day 33, PM00104 0.9 and oxaliplatin 8 mg/kg/day)?
Answer: 25.0%

Question: What about the “% Inhibition” value (MRI-H-254 tumors; day 36, PM00104 0.9 and oxaliplatin 4 mg/kg/day) of the same compound?
Answer: −15.1%

Question: And the “% Inhibition” value (MRI-H-254 tumors; day 36, PM00104 0.9 and oxaliplatin 8 mg/kg/day)?
Answer: 28.9%

Question: What about the “% Inhibition” value (MRI-H-254 tumors; day 40, PM00104 0.9 and oxaliplatin 4 mg/kg/day) of the same compound?
Answer: −15.0%

Question: What about the “% Inhibition” value (MRI-H-254 tumors; day 40, PM00104 0.9 and oxaliplatin 8 mg/kg/day) of the same compound?
Answer: 32.5%

Question: What about the “% Inhibition” value (MRI-H-254 tumors; day 48, PM00104 0.9 and oxaliplatin 4 mg/kg/day) of the same compound?
Answer: 7.6%

Question: And the “% Inhibition” value (MRI-H-254 tumors; day 48, PM00104 0.9 and oxaliplatin 8 mg/kg/day)?
Answer: 44.1%

Question: And the IC50 [4]?
Answer: 38 µM

Question: And the IC50 [5]?
Answer: 3.2 µM

Question: What about the IC50 [6] of the same compound?
Answer: 140 µM
